Publication PMC11089505, “Structural Elucidation and Antiviral Activity of Covalent Cathepsin L Inhibitors” (Journal of Medicinal Chemistry, 2024)
“And” between values parts separate entries of the source, which are not always exact repeats. Identical values can stand only once.

System: SARS-CoV-2 Omicron variant BA.1 in Vero E6 cells
Assay: microbe, parasite or virus in culture
Format: cell-based

CCCC(NC(=O)C(CC(C)C)NC(=O)OCc1ccccc1)C(=O)C(=O)NCc1ccccn1 (stereo not drawn) [CI-XII, Benzyl N-[1-[[1.2-dioxo-1-(pyridin-2-ylmethylamino)hexan-3-yl]amino]-4-methyl-1-oxopentan-2-yl]carbamate]
reduction of quantity of viral RNA: more than 50% | EC50 (Severe acute respiratory syndrome coronavirus 2, Vero C1008, 24 h, read-out: EC50 (qRT-PCR)): < 0.1 µM

CCC(CC)COC(=O)[C@H](C)N[P@](=O)(OC[C@H]1O[C@@](C#N)(c2ccc3c(N)ncnn23)[C@H](O)[C@@H]1O)Oc1ccccc1 [Remdesivir]
% RNA (qRT-PCR): 124.5% and 63.1%
